Measurements published in the NIST ThermoML archive (doi:10.1021/je8008073).
Numbers after ± are expanded uncertainties.

Assay: wn = mass fraction of the nth substance listed
Details: Liquid; for mass density: Vibrating tube method; for viscosity: Falling or rolling sphere viscometry

CC(C)Cc1ccccc1 [(2-methylpropyl)benzene] + CCCCCCCCCCCC
mass density (293.15 K, 100 kPa, w2 = 0.5): 795.4 ± 1 kg/m3
mass density (293.15 K, 2000 kPa, w2 = 0.5): 796.7 ± 1 kg/m3
mass density (293.15 K, 4000 kPa, w2 = 0.5): 798.1 ± 1 kg/m3
mass density (293.15 K, 6000 kPa, w2 = 0.5): 799.5 ± 1 kg/m3
mass density (293.15 K, 8000 kPa, w2 = 0.5): 801.1 ± 1 kg/m3
mass density (293.15 K, 10000 kPa, w2 = 0.5): 802.5 ± 1 kg/m3
mass density (293.15 K, 12000 kPa, w2 = 0.5): 803.7 ± 1 kg/m3
mass density (293.15 K, 14000 kPa, w2 = 0.5): 805 ± 1 kg/m3
mass density (293.15 K, 16000 kPa, w2 = 0.5): 806.3 ± 1.1 kg/m3
mass density (293.15 K, 18000 kPa, w2 = 0.5): 807.6 ± 1.1 kg/m3
mass density (293.15 K, 20000 kPa, w2 = 0.5): 808.9 ± 1.1 kg/m3
mass density (295.65 K, 100 kPa, w2 = 0.5): 793.6 ± 1 kg/m3
mass density (295.65 K, 2000 kPa, w2 = 0.5): 794.9 ± 1 kg/m3
mass density (295.65 K, 4000 kPa, w2 = 0.5): 796.3 ± 1 kg/m3
mass density (295.65 K, 6000 kPa, w2 = 0.5): 797.7 ± 1 kg/m3
mass density (295.65 K, 8000 kPa, w2 = 0.5): 799.1 ± 1 kg/m3
mass density (295.65 K, 10000 kPa, w2 = 0.5): 800.5 ± 1 kg/m3
mass density (295.65 K, 12000 kPa, w2 = 0.5): 801.8 ± 1 kg/m3
mass density (295.65 K, 14000 kPa, w2 = 0.5): 803.1 ± 1.1 kg/m3
mass density (295.65 K, 16000 kPa, w2 = 0.5): 804.3 ± 1.1 kg/m3
mass density (295.65 K, 18000 kPa, w2 = 0.5): 805.6 ± 1.1 kg/m3
mass density (295.65 K, 20000 kPa, w2 = 0.5): 806.8 ± 1.1 kg/m3
viscosity (298.15 K, 100 kPa, w2 = 0.5): 1.09 ± 0.05 mPa·s
mass density (298.15 K, 100 kPa, w1 = 0.48): 789.5 ± 1 kg/m3
mass density (298.15 K, 100 kPa, w1 = 0.49): 790.4 ± 1 kg/m3
mass density (298.15 K, 100 kPa, w1 = 0.5): 791.7 ± 1 kg/m3
mass density (298.15 K, 100 kPa, w1 = 0.51): 792.7 ± 1 kg/m3
mass density (298.15 K, 100 kPa, w1 = 0.52): 793.6 ± 1 kg/m3
mass density (298.15 K, 100 kPa, w2 = 0.5): 791.7 ± 1 kg/m3
mass density (298.15 K, 2000 kPa, w1 = 0.48): 790.9 ± 1 kg/m3
mass density (298.15 K, 2000 kPa, w1 = 0.49): 792 ± 1 kg/m3
mass density (298.15 K, 2000 kPa, w1 = 0.5): 793.1 ± 1 kg/m3
mass density (298.15 K, 2000 kPa, w1 = 0.51): 794.1 ± 1 kg/m3
mass density (298.15 K, 2000 kPa, w1 = 0.52): 795.2 ± 1 kg/m3
mass density (298.15 K, 2000 kPa, w2 = 0.5): 793.1 ± 1 kg/m3
viscosity (298.15 K, 4000 kPa, w2 = 0.5): 1.14 ± 0.05 mPa·s
mass density (298.15 K, 4000 kPa, w1 = 0.48): 792.4 ± 1 kg/m3
mass density (298.15 K, 4000 kPa, w1 = 0.49): 793.5 ± 1 kg/m3
mass density (298.15 K, 4000 kPa, w1 = 0.5): 794.5 ± 1 kg/m3
mass density (298.15 K, 4000 kPa, w1 = 0.51): 795.7 ± 1 kg/m3
mass density (298.15 K, 4000 kPa, w1 = 0.52): 796.6 ± 1 kg/m3
mass density (298.15 K, 4000 kPa, w2 = 0.5): 794.5 ± 1 kg/m3
mass density (298.15 K, 6000 kPa, w1 = 0.48): 793.9 ± 1 kg/m3
mass density (298.15 K, 6000 kPa, w1 = 0.49): 794.9 ± 1 kg/m3
mass density (298.15 K, 6000 kPa, w1 = 0.5): 795.9 ± 1 kg/m3
mass density (298.15 K, 6000 kPa, w1 = 0.51): 797 ± 1 kg/m3
mass density (298.15 K, 6000 kPa, w1 = 0.52): 797.9 ± 1 kg/m3
mass density (298.15 K, 6000 kPa, w2 = 0.5): 795.9 ± 1 kg/m3
mass density (298.15 K, 8000 kPa, w1 = 0.48): 795.3 ± 1 kg/m3
mass density (298.15 K, 8000 kPa, w1 = 0.49): 796.3 ± 1 kg/m3
mass density (298.15 K, 8000 kPa, w1 = 0.5): 797.3 ± 1 kg/m3
mass density (298.15 K, 8000 kPa, w1 = 0.51): 798.4 ± 1 kg/m3
mass density (298.15 K, 8000 kPa, w1 = 0.52): 799.3 ± 1 kg/m3
mass density (298.15 K, 8000 kPa, w2 = 0.5): 797.3 ± 1 kg/m3
viscosity (298.15 K, 10000 kPa, w2 = 0.5): 1.22 ± 0.05 mPa·s
mass density (298.15 K, 10000 kPa, w1 = 0.48): 796.6 ± 1 kg/m3
mass density (298.15 K, 10000 kPa, w1 = 0.49): 797.4 ± 1 kg/m3
mass density (298.15 K, 10000 kPa, w1 = 0.5): 798.6 ± 1 kg/m3
mass density (298.15 K, 10000 kPa, w1 = 0.51): 799.7 ± 1 kg/m3
mass density (298.15 K, 10000 kPa, w1 = 0.52): 800.6 ± 1 kg/m3
mass density (298.15 K, 10000 kPa, w2 = 0.5): 798.6 ± 1 kg/m3
mass density (298.15 K, 12000 kPa, w1 = 0.48): 797.9 ± 1 kg/m3
mass density (298.15 K, 12000 kPa, w1 = 0.49): 798.7 ± 1 kg/m3
mass density (298.15 K, 12000 kPa, w1 = 0.5): 799.9 ± 1 kg/m3
mass density (298.15 K, 12000 kPa, w1 = 0.51): 801 ± 1 kg/m3
mass density (298.15 K, 12000 kPa, w1 = 0.52): 801.9 ± 1 kg/m3
mass density (298.15 K, 12000 kPa, w2 = 0.5): 799.9 ± 1 kg/m3
mass density (298.15 K, 14000 kPa, w1 = 0.48): 799.2 ± 1.1 kg/m3
mass density (298.15 K, 14000 kPa, w1 = 0.49): 800.1 ± 1.1 kg/m3
mass density (298.15 K, 14000 kPa, w1 = 0.5): 801.3 ± 1.1 kg/m3
mass density (298.15 K, 14000 kPa, w1 = 0.51): 802.3 ± 1.1 kg/m3
mass density (298.15 K, 14000 kPa, w1 = 0.52): 803.2 ± 1.1 kg/m3
mass density (298.15 K, 14000 kPa, w2 = 0.5): 801.3 ± 1.1 kg/m3
mass density (298.15 K, 16000 kPa, w1 = 0.48): 800.5 ± 1.1 kg/m3
mass density (298.15 K, 16000 kPa, w1 = 0.49): 801.3 ± 1.1 kg/m3
mass density (298.15 K, 16000 kPa, w1 = 0.5): 802.6 ± 1.1 kg/m3
mass density (298.15 K, 16000 kPa, w1 = 0.51): 803.5 ± 1.1 kg/m3
mass density (298.15 K, 16000 kPa, w1 = 0.52): 804.5 ± 1.1 kg/m3
mass density (298.15 K, 16000 kPa, w2 = 0.5): 802.6 ± 1.1 kg/m3
mass density (298.15 K, 18000 kPa, w1 = 0.48): 801.7 ± 1.1 kg/m3
mass density (298.15 K, 18000 kPa, w1 = 0.49): 802.6 ± 1.1 kg/m3
mass density (298.15 K, 18000 kPa, w1 = 0.5): 803.8 ± 1.1 kg/m3
mass density (298.15 K, 18000 kPa, w1 = 0.51): 804.7 ± 1.1 kg/m3
mass density (298.15 K, 18000 kPa, w1 = 0.52): 805.7 ± 1.1 kg/m3
mass density (298.15 K, 18000 kPa, w2 = 0.5): 803.8 ± 1.1 kg/m3
mass density (298.15 K, 20000 kPa, w1 = 0.48): 803.1 ± 1.1 kg/m3
mass density (298.15 K, 20000 kPa, w1 = 0.49): 803.9 ± 1.1 kg/m3
mass density (298.15 K, 20000 kPa, w1 = 0.5): 805.1 ± 1.1 kg/m3
mass density (298.15 K, 20000 kPa, w1 = 0.51): 806 ± 1.1 kg/m3
mass density (298.15 K, 20000 kPa, w1 = 0.52): 807 ± 1.1 kg/m3
mass density (298.15 K, 20000 kPa, w2 = 0.5): 805.1 ± 1.1 kg/m3
mass density (300.65 K, 100 kPa, w2 = 0.5): 789.9 ± 1 kg/m3
mass density (300.65 K, 2000 kPa, w2 = 0.5): 791.2 ± 1 kg/m3
mass density (300.65 K, 4000 kPa, w2 = 0.5): 792.6 ± 1 kg/m3
mass density (300.65 K, 6000 kPa, w2 = 0.5): 794 ± 1 kg/m3
mass density (300.65 K, 8000 kPa, w2 = 0.5): 795.4 ± 1 kg/m3
mass density (300.65 K, 10000 kPa, w2 = 0.5): 796.8 ± 1 kg/m3
mass density (300.65 K, 12000 kPa, w2 = 0.5): 798.1 ± 1 kg/m3
mass density (300.65 K, 14000 kPa, w2 = 0.5): 799.4 ± 1.1 kg/m3
mass density (300.65 K, 16000 kPa, w2 = 0.5): 800.7 ± 1.1 kg/m3
mass density (300.65 K, 18000 kPa, w2 = 0.5): 802 ± 1.1 kg/m3
mass density (300.65 K, 20000 kPa, w2 = 0.5): 803.3 ± 1.1 kg/m3
mass density (303.15 K, 100 kPa, w2 = 0.5): 788.1 ± 1 kg/m3
mass density (303.15 K, 2000 kPa, w2 = 0.5): 789.6 ± 1 kg/m3
mass density (303.15 K, 4000 kPa, w2 = 0.5): 791.1 ± 1 kg/m3
mass density (303.15 K, 6000 kPa, w2 = 0.5): 792.5 ± 1 kg/m3
mass density (303.15 K, 8000 kPa, w2 = 0.5): 794 ± 1 kg/m3
mass density (303.15 K, 10000 kPa, w2 = 0.5): 795.4 ± 1 kg/m3
mass density (303.15 K, 12000 kPa, w2 = 0.5): 796.7 ± 1 kg/m3
mass density (303.15 K, 14000 kPa, w2 = 0.5): 798.1 ± 1.1 kg/m3
mass density (303.15 K, 16000 kPa, w2 = 0.5): 799.4 ± 1.1 kg/m3
mass density (303.15 K, 18000 kPa, w2 = 0.5): 800.8 ± 1.1 kg/m3
mass density (303.15 K, 20000 kPa, w2 = 0.5): 802 ± 1.1 kg/m3
